Measurements published in patent US8664261B2, “Organic compounds having cooling properties” (Givaudan S.A., priority 2009, dated 2014).

Key:
panelists [1] = assay: Cooling intensity: panelists taste aqueous solutions, compared with menthol at 2 ppm; format: in vivo; conditions: aqueous solution with cooling intensity similar to or slightly higher than a solution of menthol at 2 ppm; tasted by small group of panelists
panelists [2] = assay: Application in toothpaste: duration of perceived cooling sensation after brushing; format: in vivo; conditions: 0.10 g of 10% ethanol solution of compound + 0.03 g saccharin in 9.96 g opaque toothgel base; teeth brushed, mouth rinsed with water
Description: 0.10 g of a 10% solution in ethanol of a compound of formula (I) listed in Table 4 below and 0.03 g saccharin were mixed in 9.96 g of an opaque toothgel base. A piece of the thus prepared toothpaste was put on a toothbrush and a panelist's teeth were brushed. The mouth was rinsed with water and the water spat out. A long lasting cooling sensation was felt by the panelist in all areas of the mouth. The cooling sensation was perceived for up to 60 min (see Table 5).

Row | SMILES | Concentration (panelists [1]) [ppm] | Perceived cooling sensation (panelists [2]) [min]
1 | CC(C)[C@@H]1CC[C@@H](C)C[C@H]1C(=O)NCCc1ncc[nH]1 [Example 2H, (1R,2S,5R)-N-(2-(1H-imidazol-2-yl)ethyl)-2-isopropyl-5-methlycyclohexane-carboxamide] | 0.2 | 40
2 | CCNC(=O)C1CC(C)CCC1C(C)C (stereo not drawn) [N-ethyl p-menthanecarboxamide, reference compound] | 1.5 | –
3 | CC(C)[C@@H]1CC[C@@H](C)C[C@H]1C(=O)NCCc1ccccn1 [(1R,2S,5R)-2-isopropyl-5-methyl-N-(2-(pyridin-2-yl)ethyl)cyclohexanecarboxamide, reference compound] | 0.02 | –
4 | CC(C)[C@@H]1CC[C@@H](C)C[C@H]1C(=O)Nc1ccc(CC#N)cc1 [(1R,2S,5R)-N-(4-(cyanomethyl)phenyl)-2-isopropyl-5-methylcyclohexanecarboxamide, reference compound] | 0.2 | –
5 | CC(C)[C@@H]1CC[C@@H](C)C[C@H]1C(=O)NCCn1ccc2ccccc21 [Example 2J, (1R,2S,5R)-N-(2-(1H-indol-1-yl)ethyl)-2-isopropyl-5-methylcyclohexanecarboxamide] | 0.002 | –
6 | CC(Cc1ccsc1)NC(=O)[C@@H]1C[C@H](C)CC[C@H]1C(C)C (stereo partly drawn) [Example 2M, (1R,2S,5R)-2-isopropyl-5-methyl-N-(1-(thiophen-3-yl)propan-2-yl)cyclohexane-carboxamide] | 0.002 | 40
7 | CC1CCC(C(C)C)C(O)C1 (stereo not drawn) [I-Menthol, reference compound] | 2.0 | –
8 | CC(Cc1cccnc1)NC(=O)[C@@H]1C[C@H](C)CC[C@H]1C(C)C (stereo partly drawn) [Example 1, (1R,2S,5R)-2-isopropyl-5-methyl-N-(1-(pyridin-3-yl)propan-2-yl)cyclohexanecarboxamide] | 0.01 | 30
9 | Cc1[nH]c2ccccc2c1CCNC(=O)[C@@H]1C[C@H](C)CC[C@H]1C(C)C [Example 2I, (1R,2S,5R)-2-isopropyl-5-methyl-N-(2-(2-methyl-1H-indol-3-yl)ethyl)cyclohexane-carboxamide] | – | 60
